In article PMC6155021, “Ancient and modern anticonvulsants act synergistically in a KCNQ potassium channel binding pocket” (Nature Communications, 2018):

What was measured:
[1] = rats fed Mallotus philippensis extract; cited from earlier work
[2] = system: water-injected control oocytes; assay: Two-electrode voltage-clamp of water-injected control oocytes; type: cell-based, Xenopus laevis
Excerpt: Chemicals were sourced from Sigma.

KCNQ4 = KCNQ4 (Homo sapiens, UniProt P56696); assay: cell-based; type: cell-based
Excerpt: (§1) cRNA transcripts encoding human KCNA1, KCNQ1, KCNQ2, KCNQ3, KCNQ4, or KCNQ5 were generated by in vitro transcription using the T7 polymerase message machine kit (Thermo Fisher Scientific), after vector linearization, from cDNA sub-cloned into plasmids incorporating X. laevis β-globin 5′ and 3′ UTRs flanking the coding region to enhance translation and cRNA stability. cRNA was quantified by spectrophotometry. Mutant cDNAs were generated by site-directed mutagenesis using a QuikChange kit according to manufacturer’s protocol (Stratagene, San Diego, CA) and corresponding cRNAs prepared as above. Defolliculated stage V and VI X. laevis oocytes (Ecocyte Bioscience, Austin, TX) were injected with Kv channel α subunit cRNAs (10 ng total per oocyte). Oocytes were incubated at 16 °C in Barth’s saline solution (Ecocyte) containing penicillin and streptomycin, with daily washing, for 3–5 days prior to two-electrode voltage-clamp (TEVC) recording.
(§2) Oocytes were placed in a small-volume oocyte bath (Warner) and viewed with a dissection microscope. Chemicals were sourced from Sigma. Bath solution was (in mM): 96 NaCl, 4 KCl, 1 MgCl2, 1 CaCl2, 10 HEPES (pH 7.6). […] MTX (DMSO), sorbic acid (ethanol), and glutaconic acid (molecular grade H2O) were stored at −20 °C as 1 M stocks. Oleamide was stored as a 1 mM stock in ethanol at 4 °C. Palmitic acid was conjugated with bovine serum albumin as a 1 mM stock and stored at −20 °C. All compounds were diluted to working concentrations each experimental day. All compounds were introduced to the recording bath via gravity perfusion at a constant flow of 1 ml/min for 3 min prior to recording. Pipettes were of 1–2 MΩ resistance when filled with 3 M KCl. Currents were recorded in response to pulses between −80 and +40 mV at 20 mV intervals, or a single pulse to +40 mV, from a holding potential of −80 mV, to yield current–voltage relationships, current magnitude, and for quantifying activation rate. TEVC data analysis was performed with Clampfit10.2 (Molecular Devices) and Graphpad Prism software (GraphPad, San Diego, CA, USA); values are stated as mean ± SEM. Normalized tail currents were plotted versus prepulse voltage and fitted with a single Boltzmann function:1 g=A1-A2/1+expV12-Vy+A2, where g is the normalized tail conductance, A1 is the initial value at −∞, A2 is the final value at +∞, V1/2 is the half-maximal voltage of activation, and Vs the slope factor. Activation and deactivation kinetics were fitted with single-exponential functions.

KCNQ3* (KCNQ3-A315T) = KCNQ3* (KCNQ3-A315T) (Homo sapiens, UniProt O43525, A315T); assay: cell-based; type: cell-based
Excerpt: as §1, §2

KCNQ5 = KCNQ5 (Homo sapiens, UniProt Q9NR82); assay: cell-based; type: cell-based
Excerpt: as §1, §2

KCNA1 = KCNA1 (Homo sapiens, UniProt Q09470); assay: Two-electrode voltage-clamp of KCNA1 in Xenopus oocytes; type: cell-based; settings: MTX concentration not given; IVA 500 µM
Excerpt: as §1
as §2, with “TEVC data analysis was performed with Clampfit10.2 (Molecular Devices) and Graphpad Prism software (GraphPad, San Diego, CA, USA); values are stated as mean ± SEM. Normalized tail currents were plotted versus prepulse voltage and fitted with a single Boltzmann function:1 g=A1-A2/1+expV12-Vy+A2, where g is the normalized tail conductance, A1 is the initial value at −∞, A2 is the final value at +∞, V1/2 is the half-maximal voltage of activation, and Vs the slope factor. Activation and deactivation kinetics were fitted with single-exponential functions.” left out

Q2/W265L-Q3 channels = Q2/W265L-Q3 channels (Homo sapiens, UniProt O43525+O43526, W265L); assay: Two-electrode voltage-clamp of Q2/W265L-Q3 mutant channels in Xenopus oocytes; type: cell-based; settings: for Non-normalized tail current V0.5 / Normalized tail current V0.5 / Slope: Q2/W265L-Q3
Excerpt: as §1, §2

Sequence of Q2/W265L-Q3 channels (O43526 whole entry): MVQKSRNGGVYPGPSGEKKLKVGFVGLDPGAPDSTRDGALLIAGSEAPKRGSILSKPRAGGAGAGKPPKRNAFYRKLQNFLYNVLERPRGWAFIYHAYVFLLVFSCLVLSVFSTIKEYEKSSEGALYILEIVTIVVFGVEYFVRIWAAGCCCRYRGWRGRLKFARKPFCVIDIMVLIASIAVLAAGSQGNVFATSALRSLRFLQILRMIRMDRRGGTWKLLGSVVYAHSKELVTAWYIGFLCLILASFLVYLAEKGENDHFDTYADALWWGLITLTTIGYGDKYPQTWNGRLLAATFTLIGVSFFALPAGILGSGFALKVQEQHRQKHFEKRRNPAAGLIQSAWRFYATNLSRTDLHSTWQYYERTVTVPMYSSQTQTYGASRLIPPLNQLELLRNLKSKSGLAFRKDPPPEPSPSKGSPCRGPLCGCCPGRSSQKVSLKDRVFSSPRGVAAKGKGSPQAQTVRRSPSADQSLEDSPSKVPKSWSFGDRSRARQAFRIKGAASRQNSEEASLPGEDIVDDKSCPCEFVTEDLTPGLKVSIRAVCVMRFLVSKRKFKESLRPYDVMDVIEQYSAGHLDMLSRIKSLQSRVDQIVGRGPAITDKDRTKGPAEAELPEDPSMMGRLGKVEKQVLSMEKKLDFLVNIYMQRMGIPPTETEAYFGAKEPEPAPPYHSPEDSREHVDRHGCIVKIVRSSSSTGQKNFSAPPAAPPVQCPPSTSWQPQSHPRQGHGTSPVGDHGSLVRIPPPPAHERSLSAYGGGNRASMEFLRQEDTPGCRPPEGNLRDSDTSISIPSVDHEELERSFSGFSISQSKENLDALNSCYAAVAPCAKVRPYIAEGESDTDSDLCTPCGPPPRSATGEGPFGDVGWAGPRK
Sequence of Q2/W265L-Q3 channels (O43525 whole entry W265L): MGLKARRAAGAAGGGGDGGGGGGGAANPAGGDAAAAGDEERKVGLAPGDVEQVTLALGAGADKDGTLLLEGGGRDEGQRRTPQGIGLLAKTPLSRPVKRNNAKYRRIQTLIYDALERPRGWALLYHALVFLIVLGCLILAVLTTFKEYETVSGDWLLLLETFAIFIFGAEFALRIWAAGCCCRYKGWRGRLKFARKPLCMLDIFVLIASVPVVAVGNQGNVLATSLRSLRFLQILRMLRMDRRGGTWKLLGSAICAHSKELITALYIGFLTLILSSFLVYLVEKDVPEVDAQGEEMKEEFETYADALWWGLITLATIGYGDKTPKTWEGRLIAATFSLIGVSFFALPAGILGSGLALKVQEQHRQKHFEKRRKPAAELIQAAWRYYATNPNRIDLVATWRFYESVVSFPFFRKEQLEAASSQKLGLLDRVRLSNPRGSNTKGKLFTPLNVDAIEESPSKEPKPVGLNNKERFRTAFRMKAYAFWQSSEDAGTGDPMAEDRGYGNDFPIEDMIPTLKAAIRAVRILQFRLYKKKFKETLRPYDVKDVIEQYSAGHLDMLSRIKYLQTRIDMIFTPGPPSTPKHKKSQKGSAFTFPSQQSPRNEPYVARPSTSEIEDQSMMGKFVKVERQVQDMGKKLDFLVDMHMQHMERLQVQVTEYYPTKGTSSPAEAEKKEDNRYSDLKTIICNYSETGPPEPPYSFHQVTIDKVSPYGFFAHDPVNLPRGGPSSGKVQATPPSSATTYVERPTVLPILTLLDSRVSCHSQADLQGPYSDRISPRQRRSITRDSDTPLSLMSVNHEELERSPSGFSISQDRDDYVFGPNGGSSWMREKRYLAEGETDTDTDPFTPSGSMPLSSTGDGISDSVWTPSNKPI
Sequence of KCNQ3* (KCNQ3-A315T) (O43525 whole entry A315T, looked up): as the sequence (O43525 whole entry W265L) above, with L265W, A315T counted along it
Sequence of KCNA1 (Q09470 whole entry): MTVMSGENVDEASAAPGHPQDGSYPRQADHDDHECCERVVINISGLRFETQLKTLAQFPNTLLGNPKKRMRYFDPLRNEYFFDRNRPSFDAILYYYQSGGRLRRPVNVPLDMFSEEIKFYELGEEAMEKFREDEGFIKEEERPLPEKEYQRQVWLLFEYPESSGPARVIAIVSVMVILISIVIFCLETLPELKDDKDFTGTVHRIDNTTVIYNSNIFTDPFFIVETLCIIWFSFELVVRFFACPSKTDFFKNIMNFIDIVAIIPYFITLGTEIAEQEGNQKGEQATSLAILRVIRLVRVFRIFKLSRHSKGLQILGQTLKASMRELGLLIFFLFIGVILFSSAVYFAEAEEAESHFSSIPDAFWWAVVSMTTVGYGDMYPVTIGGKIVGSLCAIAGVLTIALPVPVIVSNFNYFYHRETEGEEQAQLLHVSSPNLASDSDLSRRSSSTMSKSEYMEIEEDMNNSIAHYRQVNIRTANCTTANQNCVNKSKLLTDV

Structure (SMILES): CC(=O)c1c(O)c(C)c(O)c(Cc2c(O)c3c(c(C(=O)/C=C/c4ccccc4)c2O)OC(C)(C)C=C3)c1O [MTX, mallotoxin]
- Oral bioavailability [1]: > 20%
- plasma concentrations [1]: exceeded 2 µg/ml
- effect on endogenous current and EM of water-injected control oocytes [2]: no effect
- EC50 (KCNQ4): 20.2 µM
- Non-normalized tail current V0.5 (KCNQ4; KCNQ4, 0.1 µM): -17.1 ± 8.1 mV
- Normalized tail current V0.5 (KCNQ4; KCNQ4, 0.1 µM): -17.0 ± 1.6 mV
- Slope (KCNQ4; KCNQ4, 0.1 µM): 14.1 ± 1.6 mV
- τ act, -40 mV (KCNQ4; KCNQ4, 0.1 µM): 941 ± 52 ms
- τ deact, -80 mV (KCNQ4; KCNQ4, 0.1 µM): 924 ± 223 ms
- Non-normalized tail current V0.5 (KCNQ4; KCNQ4, 1 µM): -18.1 ± 9.0 mV
- Normalized tail current V0.5 (KCNQ4; KCNQ4, 1 µM): -18.1 ± 1.9 mV
- Slope (KCNQ4; KCNQ4, 1 µM): 15.0 ± 1.9 mV
- τ act, -40 mV (KCNQ4; KCNQ4, 1 µM): 878 ± 78 ms
- τ deact, -80 mV (KCNQ4; KCNQ4, 1 µM): 891 ± 234 ms
- Non-normalized tail current V0.5 (KCNQ4; KCNQ4, 3 µM): -20.5 ± 9.8 mV
- Normalized tail current V0.5 (KCNQ4; KCNQ4, 3 µM): -20.1 ± 1.3 mV
- Slope (KCNQ4; KCNQ4, 3 µM): 15.6 ± 1.9 mV
- τ act, -40 mV (KCNQ4; KCNQ4, 3 µM): 851 ± 70 ms
- τ deact, -80 mV (KCNQ4; KCNQ4, 3 µM): 861 ± 240 ms
- Non-normalized tail current V0.5 (KCNQ4; KCNQ4, 10 µM): -25.3 ± 9.7 mV
- Normalized tail current V0.5 (KCNQ4; KCNQ4, 10 µM): -25.6 ± 1.9 mV
- Slope (KCNQ4; KCNQ4, 10 µM): 15.9 ± 1.9 mV
- τ act, -40 mV (KCNQ4; KCNQ4, 10 µM): 847 ± 94 ms
- τ deact, -80 mV (KCNQ4; KCNQ4, 10 µM): 906 ± 293 ms
- Non-normalized tail current V0.5 (KCNQ4; KCNQ4, 30 µM): -32.9 ± 9.7 mV
- Normalized tail current V0.5 (KCNQ4; KCNQ4, 30 µM): -32.1 ± 1.9 mV
- Slope (KCNQ4; KCNQ4, 30 µM): 14.4 ± 1.8 mV
- shift in midpoint voltage of activation (KCNQ4; KCNQ4, 30 µM): −17 mV
- τ act, -40 mV (KCNQ4; KCNQ4, 30 µM): 865 ± 108 ms
- τ deact, -80 mV (KCNQ4; KCNQ4, 30 µM): 905 ± 283 ms
- Non-normalized tail current V0.5 (KCNQ4; KCNQ4, 100 µM): -31.3 ± 9.4 mV
- Normalized tail current V0.5 (KCNQ4; KCNQ4, 100 µM): -31.5 ± 1.3 mV
- Slope (KCNQ4; KCNQ4, 100 µM): 16.4 ± 3.2 mV
- τ act, -40 mV (KCNQ4; KCNQ4, 100 µM): 1092 ± 170 ms
- τ deact, -80 mV (KCNQ4; KCNQ4, 100 µM): 1197 ± 446 ms
- EC50 (KCNQ3* (KCNQ3-A315T)): 13 µM
- Non-normalized tail current V0.5 (KCNQ3* (KCNQ3-A315T); KCNQ3*, 1 µM): -56.1 ± 4.2 mV
- Normalized tail current V0.5 (KCNQ3* (KCNQ3-A315T); KCNQ3*, 1 µM): -56.4 ± 1.6 mV
- τ act, -40 mV (KCNQ3* (KCNQ3-A315T); KCNQ3*, 1 µM): 552 ± 98 ms
- τ deact, -80 mV (KCNQ3* (KCNQ3-A315T); KCNQ3*, 1 µM): 290 ± 51 ms
- Non-normalized tail current V0.5 (KCNQ3* (KCNQ3-A315T); KCNQ3*, 3 µM): -57.4 ± 5.3 mV
- Normalized tail current V0.5 (KCNQ3* (KCNQ3-A315T); KCNQ3*, 3 µM): -57.3 ± 1.4 mV
- τ act, -40 mV (KCNQ3* (KCNQ3-A315T); KCNQ3*, 3 µM): 489 ± 55 ms
- τ deact, -80 mV (KCNQ3* (KCNQ3-A315T); KCNQ3*, 3 µM): 263 ± 29 ms
- Non-normalized tail current V0.5 (KCNQ3* (KCNQ3-A315T); KCNQ3*, 10 µM): -59.5 ± 4.2 mV
- Normalized tail current V0.5 (KCNQ3* (KCNQ3-A315T); KCNQ3*, 10 µM): -59.5 ± 1.0 mV
- τ act, -40 mV (KCNQ3* (KCNQ3-A315T); KCNQ3*, 10 µM): 421 ± 26 ms
- τ deact, -80 mV (KCNQ3* (KCNQ3-A315T); KCNQ3*, 10 µM): 244 ± 17 ms
- Non-normalized tail current V0.5 (KCNQ3* (KCNQ3-A315T); KCNQ3*, 30 µM): -62.1 ± 3.9 mV
- Normalized tail current V0.5 (KCNQ3* (KCNQ3-A315T); KCNQ3*, 30 µM): -62.3 ± 1.2 mV
- shift in midpoint voltage of activation (KCNQ3* (KCNQ3-A315T); KCNQ3*, 30 µM): −9 mV
- τ act, -40 mV (KCNQ3* (KCNQ3-A315T); KCNQ3*, 30 µM): 388 ± 20 ms
- τ deact, -80 mV (KCNQ3* (KCNQ3-A315T); KCNQ3*, 30 µM): 240 ± 18 ms
- Non-normalized tail current V0.5 (KCNQ3* (KCNQ3-A315T); KCNQ3*, 100 µM): -65.2 ± 3.9 mV
- Normalized tail current V0.5 (KCNQ3* (KCNQ3-A315T); KCNQ3*, 100 µM): -66.2 ± 2.1 mV
- τ act, -40 mV (KCNQ3* (KCNQ3-A315T); KCNQ3*, 100 µM): 403 ± 36 ms
- τ deact, -80 mV (KCNQ3* (KCNQ3-A315T); KCNQ3*, 100 µM): 269 ± 30 ms
- EC50 (KCNQ5): 67.1 µM
- KCNQ5 current increase at −60 mV (KCNQ5; 100 µM): eight-fold
- Non-normalized tail current V0.5 (KCNQ5; KCNQ5, 1 µM): -49.3 ± 1.2 mV
- Normalized tail current V0.5 (KCNQ5; KCNQ5, 1 µM): -49.9 ± 2.1 mV
- Slope (KCNQ5; KCNQ5, 1 µM): 8.3 ± 2.1 mV
- Non-normalized tail current V0.5 (KCNQ5; KCNQ5, 3 µM): -51.7 ± 1.8 mV
- Normalized tail current V0.5 (KCNQ5; KCNQ5, 3 µM): -51.1 ± 2.3 mV
- Slope (KCNQ5; KCNQ5, 3 µM): 8.5 ± 2.1 mV
- Non-normalized tail current V0.5 (KCNQ5; KCNQ5, 10 µM): -51.9 ± 0.8 mV
- Normalized tail current V0.5 (KCNQ5; KCNQ5, 10 µM): -51.5 ± 3.2 mV
- Slope (KCNQ5; KCNQ5, 10 µM): 8.6 ± 2.9 mV
- Non-normalized tail current V0.5 (KCNQ5; KCNQ5, 30 µM): -55.9 ± 0.8 mV
- Normalized tail current V0.5 (KCNQ5; KCNQ5, 30 µM): -55.6 ± 3.8 mV
- Slope (KCNQ5; KCNQ5, 30 µM): 8.8 ± 3.6 mV
- shift in midpoint voltage of activation (KCNQ5; KCNQ5, 30 µM): −14 mV
- Non-normalized tail current V0.5 (KCNQ5; KCNQ5, 100 µM): -71.1 ± 2.6 mV
- Normalized tail current V0.5 (KCNQ5; KCNQ5, 100 µM): -71.6 ± 2.1 mV
- effect on KCNA1 currents (KCNA1): no effect
- EC50 (Q2/W265L-Q3 channels; EC50, Q2/W265L-Q3, calculated from dose responses): 70 ± 0.6 µM
- Non-normalized tail current V0.5 (Q2/W265L-Q3 channels; 1 µM): -51.3 ± 11.3 mV
- Normalized tail current V0.5 (Q2/W265L-Q3 channels; 1 µM): -45.7 ± 2.9 mV
- Slope (Q2/W265L-Q3 channels; 1 µM): 7.9 ± 1.7 mV
- Non-normalized tail current V0.5 (Q2/W265L-Q3 channels; 3 µM): -52.7 ± 10.5 mV
- Normalized tail current V0.5 (Q2/W265L-Q3 channels; 3 µM): -49.2 ± 2.6 mV
- Slope (Q2/W265L-Q3 channels; 3 µM): 7.9 ± 1.8 mV
- Non-normalized tail current V0.5 (Q2/W265L-Q3 channels; 10 µM): -54.0 ± 9.7 mV
- Normalized tail current V0.5 (Q2/W265L-Q3 channels; 10 µM): -51.8 ± 2.4 mV
- Slope (Q2/W265L-Q3 channels; 10 µM): 7.6 ± 1.4 mV
- Non-normalized tail current V0.5 (Q2/W265L-Q3 channels; 30 µM): -58.0 ± 8.3 mV
- Normalized tail current V0.5 (Q2/W265L-Q3 channels; 30 µM): -56.3 ± 2.2 mV
- Slope (Q2/W265L-Q3 channels; 30 µM): 7.4 ± 1.6 mV
- Non-normalized tail current V0.5 (Q2/W265L-Q3 channels; 100 µM): -63.7 ± 11.2 mV
- Normalized tail current V0.5 (Q2/W265L-Q3 channels; 100 µM): -61.8 ± 2.2 mV
- Slope (Q2/W265L-Q3 channels; 100 µM): 6.6 ± 2.1 mV
- EC50 (Q2/W265L-Q3 channels; V0.5 EC50, Q2/W265L-Q3, calculated from shift in V0.5): 13.7 ± 0.3 µM
